Data taken from patent USRE34165E, “Potent thymopentin analogs” (Ortho Pharmaceutical Corporation, priority 1990, dated 1993).
Read-outs that look alike come from different tables or passages of the source. Non-standard residues stand in square brackets, D forms with d. Residues, ends and D or L forms follow the SMILES beside them. No end group written: not given here. Aib = CC(C)(N)C(=O)O

What was measured:
[1] = test system: cell membrane receptor of the intact CEM cell; assay: Cyclic-GMP assay: induction of cyclic-GMP production in intact CEM cells; format: cell-based, human; conditions: for Concentration of c-GMP Produced: 4-5 min at 37° C.; for Result on the cyclic-GMP assay (in words): in comparison with thymopentin
Text: This biological activity is evidenced by an assay measuring induction of cyclic-GMP production in a human T-cell line in comparison with thymopoietin. The induction of c-GMP production by a test peptide in this assay indicates the ability of the test peptide to bind to the thymopoietin receptor site on the cell and induce thymopoietin-like biological activity. […] Because of the expense of preparing peptides and the rapid degradation of peptides often observed in living systems, peptides such as those herein which have increased potency are greatly prized.
This assay measures the ability of the test peptide to bind to the cell membrane receptor of the intact CEM cell and selectively stimulate production of cyclic-GMP, as does thymopoietin itself.
The CEM cell line was obtained from the American Type Culture Collection and was cultured in RPMI-1640 medium supplemented with 10% heat-inactivated fetal bovine serum, 10% heat-inactivated horse serum, 2 mM L-glutamine, and 50 µg/ml gentamycin at 37° C. in a humid atmosphere containing 5 percent CO2, to a final density of 3-4×10^6 cells/ml. At this concentration, the cells were in the early stationary phase of the growth curve and were judged greater than 90% viable by trypan blue exclusion. The cells were grown for four days and harvested. After harvesting, the cells were washed three times in PBS and were resuspended in RPMI-1640 medium at a concentration of 3.12×10^7 cells/ml. After the cells had been allowed to equilibrate at 37° C. for 30 min, various concentrations of the test peptides were added in a volume of 25 μl of medium to 1 ml of cells, the initial concentration of test compound added being selected to yield the desired final concentration of test peptide in the medium. The test peptide was mixed instantly with the cell suspension. The incubation was allowed to proceed in a shaking water bath at 37° C. for 4-5 min and was then terminated by addition of ice-cold trichloroacetic acid (10%; 1 ml).
The cells in TCA were then homogenized and sonicated to release cyclic nucleotide. The resulting suspension was centrifuged at 3000 g for 20 min at 4° C. and the resulting precipitate was dissolved in 0.1N NaOH and sonicated for a further 30 minutes, after which the protein content was determined by the method of Cadman, et al., Anal. Biochem., 96, 21-23 (1979). The TCA was removed from the supernatant fraction by extracting four times with 5 ml of water-saturated diethyl ether. After the final extraction, the remaining traces of ether were removed from the supernatant fraction by heating it for 10 min in a 50° C. water bath. After lyophilization of the extracted supernatant fraction, it was reconstituted in 50 mM acetate buffer, ph 6.2, for radioimmunoassay of cyclic nucleotide using the assay kit NEX-133, New England Nuclear, Boston, Mass. 02113.
A conventional competition radioimmunoassay against radio labelled cyclic GMP was conducted to determine the amount of cyclic GMP induced by each concentration of test peptide. Results are shown in FIG. 1 and in the following table, in which representative subject peptides have been assayed in comparison with thymopentin (designated "TP-5") and a "nonsense" peptide H-ASP-ARG-TYR-LYS-VAL-OH.

[2] = test system: isolated thymopoietin cell surface receptor protein from CEM cells; conditions: for Displacement of 125I-TP (in words): comparison peptides
[3] = Concentration of Peptide 10^0 μg/ml
[4] = Concentration of Peptide 10^1 μg/ml
[5] = at equivalent concentrations, with thymopoietin 37-45 nonapeptide, 12 h incubation
[6] = Concentration of Peptide 10^3 μg/ml
[7] = Concentration of Peptide 10^4 μg/ml

## CC(C)[C@H](NC(=O)[C@H](CC(=O)O)NC(=O)[C@H](CCCCN)NC(=O)[C@@H](N)CCCNC(=N)N)C(=O)N[C@@H](Cc1c[nH]cn1)C(=O)O [H--ARG--LYS--ASP--VAL--HIS--OH, Arginyl-Lysyl-Aspartyl-Valyl-Histidine] (H-RKDVH-OH)
[1]; [3]
  Concentration of c-GMP Produced: 0 picomoles/ml
[1]; [4]
  Concentration of c-GMP Produced: 9 picomoles/ml
[2]; [5]
  Displacement of 125I-TP relative to that caused by thymopoietin self-displacement: at least 50%

## CC(C)[C@H](NC(=O)[C@H](CC(=O)O)NC(=O)[C@H](CCCCN)NC(=O)[C@@H](N)CCCNC(=N)N)C(=O)N[C@@H](Cc1ccccc1)C(=O)O [H--ARG--LYS--ASP--VAL--PHE--OH, Arginyl-Lysyl-Aspartyl-Valyl-Phenylalanine] (H-RKDVF-OH)
[1]; [3]
  Concentration of c-GMP Produced: 6 picomoles/ml
[1]; [4]
  Concentration of c-GMP Produced: 9 picomoles/ml
[2]; [5]
  Displacement of 125I-TP relative to that caused by thymopoietin self-displacement: at least 50%

## CC(C)[C@H](NC(=O)[C@H](CC(=O)O)NC(=O)[C@@H]1CCCN1C(=O)[C@@H](N)CCCNC(=N)N)C(=O)N[C@@H](Cc1ccccc1)C(=O)O [H--ARG--PRO--ASP--VAL--PHE--OH, Arginyl-Prolyl-Aspartyl-Valyl-Phenylalanine] (H-RPDVF-OH)
[1]; [3]
  Concentration of c-GMP Produced: 0 picomoles/ml
[1]; [4]
  Concentration of c-GMP Produced: 12 picomoles/ml
[2]; [5]
  Displacement of 125I-TP relative to that caused by thymopoietin self-displacement: at least 50%

## CC(C)[C@H](NC(=O)[C@H](CCCCN)NC(=O)[C@H](Cc1ccc(O)cc1)NC(=O)[C@H](CCCNC(=N)N)NC(=O)[C@@H](N)CC(=O)O)C(=O)O [H--ASP--ARG--TYR--LYS--VAL--OH, H-ASP-ARG-TYR-LYS-VAL-OH, reference compound] (H-DRYKV-OH)
[1]; [6]
  Concentration of c-GMP Produced: 0 picomoles/ml
[1]; [7]
  Concentration of c-GMP Produced: 0 picomoles/ml
[1]; Concentration of Peptide 10^5 μg/ml
  Concentration of c-GMP Produced: 0 picomoles/ml

## CC(C)[C@H](NC(=O)[C@H](CC(=O)O)NC(=O)[C@H](CCCCN)NC(=O)[C@@H](N)CCCNC(=N)N)C(=O)N[C@@H](Cc1c[nH]c2ccccc12)C(N)=O [H-ARG-LYS-ASP-VAL-TRP-NH2, Arginyl-Lysyl-Aspartyl-Valyl-Tryptophan amide] (H-RKDVW-NH2)
[1]
  Result on the cyclic-GMP assay (in words): superior results
[2]; [5]
  Displacement of 125I-TP relative to that caused by thymopoietin self-displacement: at least 50%

## CC(C)[C@H](NC(=O)[C@H](CC(=O)O)NC(=O)[C@H](CCCCN)NC(=O)[C@@H](N)CCCNC(=N)N)C(=O)N[C@@H](Cc1c[nH]c2ccccc12)C(=O)O [H-ARG-LYS-ASP-VAL-TRP-OH, Arginyl-Lysyl-Aspartyl-Valyl-Tryptophan] (H-RKDVW-OH)
[1]
  Result on the cyclic-GMP assay (in words): superior results
[2]; [5]
  Displacement of 125I-TP relative to that caused by thymopoietin self-displacement: at least 50%

## CC(=O)N[C@@H](CCCNC(=N)N)C(=O)NC(C)(C)C(=O)N[C@@H](CC(=O)O)C(=O)N[C@H](C(=O)N[C@@H](Cc1ccccc1)C(N)=O)C(C)C [N-α-acetyl-ARG-AIB-ASP-VAL-PHE-NH2, Acetyl-Arginyl-α-Aminoisobutyryl-Aspartyl-Valyl-Phenylalaminamide] (Ac-R[Aib]DVF-NH2)
[1]
  Result on the cyclic-GMP assay (in words): superior results

## CC(=O)N[C@@H](CCCNC(=N)N)C(=O)N1CCC[C@H]1C(=O)N[C@@H](CC(=O)O)C(=O)N[C@H](C(=O)N[C@@H](Cc1ccccc1)C(N)=O)C(C)C [N-α-acetyl-ARG-PRO-ASP-VAL-PHE-NH2, Acetyl-Arginyl-Prolyl-Aspartyl-Valyl-Phenylalanineamide] (Ac-RPDVF-NH2)
[1]
  Result on the cyclic-GMP assay (in words): superior results

## CC(C)[C@H](NC(=O)[C@H](CC(=O)O)NC(=O)[C@H](CCCCN)NC(=O)[C@@H](N)CCCN=C(N)N)C(=O)N[C@@H](Cc1ccc(O)cc1)C(=O)O [TP-5, thymopentin] (H-RKDVY-OH)
[1]; [3]
  Concentration of c-GMP Produced: 0 picomoles/ml
[1]; [4]
  Concentration of c-GMP Produced: 4.5 picomoles/ml
[1]; Concentration of Peptide 10^2 μg/ml
  Concentration of c-GMP Produced: 9 picomoles/ml
[1]; [6]
  Concentration of c-GMP Produced: 12 picomoles/ml
[1]; [7]
  Concentration of c-GMP Produced: 14 picomoles/ml

## C[C@H](N)C(=O)NCC(=O)N[C@H]1CSSC[C@@H](C(=O)O)NC(=O)[C@H](CO)NC(=O)[C@H]([C@@H](C)O)NC(=O)[C@H](Cc2ccccc2)NC(=O)[C@H]([C@@H](C)O)NC(=O)[C@H](CCCCN)NC(=O)[C@H](Cc2c[nH]c3ccccc23)NC(=O)[C@H](Cc2ccccc2)NC(=O)[C@H](Cc2ccccc2)NC(=O)[C@H](CC(N)=O)NC(=O)[C@H](CCCCN)NC1=O [somatostatin]
[2]
  Displacement of 125I-TP (in words): no detectable displacement

## CC(=O)N[C@@H](CCCNC(=N)N)C(=O)N1CCC[C@H]1C(=O)N[C@@H](CC(=O)O)C(=O)N[C@H](C(=O)N[C@@H](Cc1ccccc1)C(=O)O)C(C)C [α-acetyl-ARG--PRO--ASP--VAL--PHE--OH, N^α -Acetyl-Arginyl-Prolyl-Aspartyl-Valyl-Phenylaline] (Ac-RPDVF-OH)
[1]; [3]
  Concentration of c-GMP Produced: 7 picomoles/ml
[1]; [4]
  Concentration of c-GMP Produced: 15 picomoles/ml
[2]
  Displacement of 125I-TP relative to that caused by thymopoietin self-displacement: at least 50%

## N^α -Acetyl-Arginyl-3,4-dehydro-Prolyl-Aspartyl-Valyl-Tyrosineamide
[1]
  Result on the cyclic-GMP assay (in words): superior results

## adrenocorticotropic hormone (SYSMEHFRWGKPVGKKRRPVKVYPNGAEDESAEAFPLEF; Corticotropin; UniProt P01189 138-176, looked up) [ACTH]
[2]
  Displacement of 125I-TP (in words): no detectable displacement

## corticotropin-releasing factor (SEEPPISLDLTFHLLREVLEMARAEQLAQQAHSNRKLMEII; ends and bridges not checked; UniProt P06850 154-194, looked up) [CRF]
[2]
  Displacement of 125I-TP (in words): no detectable displacement

## facteur thymique serique [FTS]
[2]
  Displacement of 125I-TP (in words): no detectable displacement

## growth hormone
[2]
  Displacement of 125I-TP (in words): no detectable displacement

## ubiquitin
[2]
  Displacement of 125I-TP (in words): no detectable displacement

## β-endorphin (YGGFMTSEKSQTPLVTLFKNAIIKNAYKKGE; Beta-endorphin; UniProt P01189 237-267, looked up)
[2]
  Displacement of 125I-TP (in words): no detectable displacement
